# In patent publication US12133855B2, “Lipid-like nanocomplexes and uses thereof” (Trustees of Tufts College, priority 2018, dated 2024):
# Tests used:
# [1] = In vivo toxicity of blank OCholB LNPs (body weight, serum biochemistry); design: species or system Balb/c mice; settings: blank LNPs 50 μg per injection, tail vein; for serum concentrations of creatinine, urea, AST and ALT: day 1 and 5, blood at day 14; for body weight vs untreated control group: day 1 and day 5, 14 days
# Experimental: For in vivo toxicity studies, the body weights of untreated and nanoparticles injected Balb/c mice (housed in a temperature and humidity controlled facility with a 12 h light/dark cycle) were measured at day 1, 3, 5, 7, 9, 11, 13 and 14. Biological functions of kidney and liver were examined by the serum biochemical tests and concentrations of creatinine, urea, aspartate aminotransferase (AST), and alanine aminotransferase (ALT) were measured using corresponding detection kits (MilliporeSigma) following manufacturers' protocols.
# The in vivo toxicity of the OCholB LNPs was further examined by measuring body weight change and biological functions of kidney and liver through serum biochemical tests using Balb/c mice. 4-6 weeks old Balb/c mice (n=3) were injected with blank 75-OCholB, 76-OCholB and 77-OCholB LNPs (50 μg LNPs for each injection) through tail vein at day 1 and day 5, body weights were monitored for 14 days, and blood were collected and analyzed at day 14.
# [2] = Storage stability of LNPs (time-dependent DLS, DiO/DiI FRET); format: physicochemical; settings: DiO and DiI encapsulated LNPs, 7 days of storage
# Experimental: The morphologies of LNPs were further studied by the transmission electron microscopy (TEM). […] Subsequently, the stability of LNPs thus prepared was examined by DLS and fluorescence measurements.
# The cell (HeLa and HeLa-DsRed cell lines) internalization studies were conducted using small molecular hydrophobic (nile red) and hydrophilic (calcein) fluorescent dyes and macromolecular fluorescent recombinant protein ((−30)GFP-Cre) loaded OCholB LNPs. The stabilities of cargo-loaded LNPs were examined at first using time-dependent DLS and fluorescence measurements.
# [3] = Thiol-triggered size variation of OCholB LNPs (DTT, cysteine; DLS); format: physicochemical; settings: for decrease in size: 20 μM L-cysteine, 6 h of incubation; for increase in averaged hydrodynamic diameter: 24 h; for increase of relative size: first 2 h
# Source text: The thiol-trigged degradation and dissociation of the OCholB LNPs were studied by time-dependent DLS measurements and TEM observation. […] The disruption of the vesicle structure is considered to be resulted from the thiol-exchange and disulfide bond cleavage reactions of OCholB lipidoids. We next investigated whether the thiol-containing molecules (e.g. albumin, cysteine, homocysteine, cysteinylglycine, etc.) in the serum may induce the structural disintegration of these disulfide bond-containing LNPs. The stabilities of LNPs in the presence of 20 μM of L-cysteine (Cys), which mimics the free thiols on the small- and macromolecules presented in the serum, were examined. […] While the degrees of size changes vary between lipidoids with different amine head groups, all lipidoids were more responsive to DTT (modeling intracellular conditions) than to Cysteine (modeling conditions in the blood serum).
# [4] = test system: GFP-HEK cells; test: Cas9 mRNA and sgRNA delivery, GFP knockout (GFP− cells); format: cell-based; settings: Cas9 mRNA and sgRNA 1/1; lipidoid/mRNA=10/1; [mRNA]=0.86 μg mL^−1; 48 h
# Experimental: Next, the possibility of using OCholB LNPs to deliver mRNA for genome editing (Cre-loxP and CRISPR/Cas9 systems) purposes was examined. First, Cre mRNA was complexed with OCholB LNPs and tested against HeLa-DsRed cells. The HeLa-DsRed cells express red fluorescent protein, DsRed, only upon Cre protein-mediated recombination. After 24 h of incubation with mRNA/LNPs (lipidoid/mRNA=10/1; [mRNA]=0.86 μg mL^−1), the DsRed^+ cell portions were determined by flow cytometry. […] Then the Cas9 mRNA that expresses a version of Streptococcus pyogenes SF370 Cas9 protein with an N and C terminal nuclear localization signal (NLS) were loaded into LNPs, along with single-guide RNA (sgRNA) that targets a sequence on GFP gene. GFP-HEK cells which steadily express GFP proteins were used a cell model in this case. GFP-cells, indicating a successful Cas9-mediated knockdown of GFP expression, were analyzed using flow cytometry. […] This was also found to be applicable to protein delivery in our previous studies.
# In this context, two strategies were tested, i.e., synthesizing new OCholB-tailed lipidoids with single tail rather than full substitution, and adding helper lipids (phospholipids) into fully substituted OCholB LNPs. Single-tailed lipidoids, 75-OCholB-1, 76-OCholB-1 and […] at first following similar protocols as described before and characterized by ESI-MS ([75-OCholB-1+H]^+, 736.55; [76-OCholB-1+H]^+, 734.64; [77-OCholB-1+H]^+, 748.73). Nanoparticles were than fabricated using the same sonication/vortex procedures and the obtained LNPs were measured by DLS (75-OCholB-1, <Dh>=302.6 nm, μ2/I^2=0.30; 76-OCholB-1, <Dh>=294.5 nm, μ2/I^2=0.30; 77-OCholB-1, <Dh>=254.2 nm, μ2/I^2=0.33). […] 69.4%, 72.5% and 68.9% of GFP^+ cells were determined for mRNA/75-OCholB-1, mRNA/76-OCholB-1 and mRNA/77-OCholB-1 treated HeLa cells, respectively. Cre mRNA could also be efficiently delivered into HeLa-DsRed cells, as 87.3% (mRNA/75-OCholB-1), 82.8% (mRNA/76-OCholB-1) and 81.5% (mRNA/77-OCholB-1) of cells were determined to be DsRed^+ after 24 h of exposure (FIG. 14G). […]
# [5] = test system: HeLa cells; test: Internalization of Nile red loaded nanoparticles (NR+ cells); format: cell-based; settings: 4 h of exposure
Structure (SMILES),"serum concentrations of creatinine, urea, AST and ALT [1]",body weight vs untreated control group [1],FRET ratio (I575/I575+I505) variations [2],decrease in size [3],"increase in size ([3]; 10 mM DTT, 6 h)",increase in averaged hydrodynamic diameter ([3]; 10 mM DTT),increase of relative size ([3]; 10 mM DTT),GFP^− cells [4],NR^+ cells [5]
CCN(CC)CCN(CCC(=O)OCCSSCCNC(=O)OC1CCC2(C)C(=CCC3C2CCC2(C)C(C(C)CCCC(C)C)CCC32)C1)CCC(=O)OCCSSCCNC(=O)OC1CCC2(C)C(=CCC3C2CCC2(C)C(C(C)CCCC(C)C)CCC32)C1 (stereo not shown) [Lipidoid 75-OCholB],very similar to control mice,negligible differences,negligible variations,12.2%,1315.7%,2872.4%,566.4%,6.1%,85.2%
CC(C)CCCC(C)C1CCC2C3CC=C4CC(OC(=O)NCCSSCCOC(=O)CCN(CCC(=O)OCCSSCCNC(=O)OC5CCC6(C)C(=CCC7C6CCC6(C)C(C(C)CCCC(C)C)CCC76)C5)CCN5CCCC5)CCC4(C)C3CCC12C (stereo not shown) [Lipidoid 76-OCholB],very similar to control mice,negligible differences,negligible variations,14.6%,–,–,498.5%,7.7%,65.0%
CC(C)CCCC(C)C1CCC2C3CC=C4CC(OC(=O)NCCSSCCOC(=O)CCN(CCC(=O)OCCSSCCNC(=O)OC5CCC6(C)C(=CCC7C6CCC6(C)C(C(C)CCCC(C)C)CCC76)C5)CCC5CCCN5C)CCC4(C)C3CCC12C (stereo not shown) [Lipidoid 77-OCholB],very similar to control mice,negligible differences,negligible variations,7.2%,–,–,1591.4%,4.4%,90.3%
CC(C)CCCC(C)C1CCC2C3CC=C4CC(OC(=O)NCCSSCCOC(=O)CCN(CCC(=O)OCCSSCCNC(=O)OC5CCC6(C)C(=CCC7C6CCC6(C)C(C(C)CCCC(C)C)CCC76)C5)CCN(C)C)CCC4(C)C3CCC12C (stereo not shown) [Lipidoid 78-OCholB],–,–,–,–,–,4642.8%,–,–,–
CC(C)CCCC(C)C1CCC2C3CC=C4CC(OC(=O)NCCSSCCOC(=O)CCN(C)CCN(CCN(C)CCC(=O)OCCSSCCNC(=O)OC5CCC6(C)C(=CCC7C6CCC6(C)C(C(C)CCCC(C)C)CCC76)C5)CCN(C)CCC(=O)OCCSSCCNC(=O)OC5CCC6(C)C(=CCC7C6CCC6(C)C(C(C)CCCC(C)C)CCC76)C5)CCC4(C)C3CCC12C (stereo not shown) [Lipidoid 304-OCholB],–,–,–,–,–,3849.6%,–,–,–
